# Results from patent publication US20160129005A1, “ADENINE DERIVATIVES HAVING IMMUNOMODULATING ANTI-INFLAMMATORY AND ANALGESIC ACTIVITY” (MEDESTEA RESEARCH & PRODUCTION S.p.A., priority 2011, published 2016).
# Where “and” joins values, the source holds several entries; their conditions need not be identical. Identical values can stand only once.
# What was measured:
# male Wistar rats = test: Carrageenan-induced acute inflammation of plantar pads; assay type: in vivo, rat
# Procedure: The role of […] was investigated by inducing inflammation of the plantar pads of rats with carrageenan, a model that mimics the state of acute inflammation in humans.
# Inflammation was induced in male Wistar rats by means of injection of 0.1 ml of carrageenan at 1% in sterile saline solution in the rats' right plantar pad. Peak inflammation occurs 3 hours after injection of carrageenan; at this point (t=0), the rats are treated with […] or diclofenac or indometacin (100 μM in 0.15 ml); the antinociceptive effect of the drugs was measured at 1, 3, 6, 12 and 24 hours after their administration.
# mice = test: Visceral pain: acetic acid model; assay type: in vivo, mouse; settings: 4 mg/kg intraperitoneally; FIG. 20
# Procedure: We verified the effect of […] on a model of visceral pain. 30 mice were divided into two groups of 15: one group received […] 4 mg/kg intraperitoneally while the other group was treated with only the pharmaceutical vehicle. After the pre-treatment injection, 0.6% acetic acid was administered as a bolus injection 0.3 ml IP. The mice were put in individual observation chambers for assessing, after a period of 20 minutes, the number of contractions induced in each animal following injection of acetic acid. The count started 5 minutes after administration of acetic acid.
# dendritic cells (DCs) = test: Maturation of dendritic cells (flow cytometry of membrane antigens); assay type: cell-based
# Procedure: The effect of […] on the various stages of maturation of the DCs was evaluated. The study was carried out using flow cytometry by analysing the principal membrane antigens characterizing the stage of differentiation and maturation of the DCs.
# The DCs were obtained from peripheral whole blood and were plated in a suitable medium (DC medium). The immature DCs (DCi) on day 6 of culture were collected, analysed in the cytofluorimeter and were brought to maturation by stimulation with LPS 10 μg/ml overnight (O.N.). […] 300 μM was added to DC medium during the last 5 hours or simultaneously with maturation of the DCi with LPS (10 μg/ml) overnight. CD1a is a marker of immaturity specific to the DCs, expression of which decreases in mature DCs.
# CD80 and CD86 are fundamental co-stimulatory molecules in the process of antigen presentation, and expression of them generally increases in mature DCs compared to immature DCs.
# [1] = tested on: C57BL/6 mice transplanted with BALB/c hearts; test: Murine heterotopic heart transplant model; assay type: in vivo, mouse
# Procedure: The immunosuppressive potential of […] was tested on a heterotopic heart transplant model; hearts of BALB/c mice were transplanted into the abdominal cavity of C57BL/6 mice.
# The beats of the heart were measured, twice weekly, by palpation; stopping of beating was regarded as a sign of transplant rejection.
# Three different protocols were used for prolonging transplant survival times: the “short-term” protocol ([…] 9 mg/kg daily for 14 days), the “long-term” protocol ([…] 9 mg/kg every day until rejection), and the “Combo” protocol ([…] on alternate days: day 0, 2, 4, 6, 8, 10, 12, 14+Rapamycin 0.1 mg/kg from day 0 to day 10).
# In the acute heart transplant models, the hearts of BALB/c were transplanted into the peritoneal cavity of C57BL/6 mice. The control mice invariably reject the transplant in 10 days (Ctrl: MST=7 days, n=12), (FIG. 26). The “short-term” protocol permitted indefinite survival (100 days) in 10 mice out of 12 (n=12; p=0.0001 vs. Ctrl), (FIG. 26). Similarly, the “long-term” protocol permitted indefinite survival in 8 mice out of 10 (n=10; p=0.002 vs Ctrl), and prolonged survival in the remaining 2 (16 days and 25 days; p=0.002 vs. Ctrl), (FIG. 26).
# The histological sections of the hearts on day 7 of BALB/c mice, transplanted into a C57BL/6 host, and treated with the “short-term” protocol, were also analysed.
# Sprague-Dawley (SD) rats = test: Renal ischaemia/reperfusion injury; assay type: in vivo, rat
# Excerpt: Ischaemia is an acute pathologic event in which there is reduction in blood supply with resultant injury or dysfunction of the affected tissue. Currently, the obstructed blood vessel is cleared by direct intervention. The resumption of normal circulation after a period of hypoxia causes quite considerable tissue injury, however, with fibrotic results that undermine the functionality of the affected organ. […] We wanted to check whether […] could reduce the injury due to reperfusion and to do so we used a model of renal ischaemia. The model envisages creation of an ischaemic event and then verification of the injury following treatment with […] or with the vehicle.
# The experiment was conducted on Sprague-Dawley (SD) rats of 250-300 g divided into three groups. The first group, the […], only underwent an incision, which was kept open for 30 minutes, without ischaemic injury. The other two were pretreated, 30 minutes before undergoing the intervention, with intraperitoneal administration of vehicle (group 2) or of […] (group 3) 10 mg/kg. […]
# The kidneys were sectioned for histologic analysis in double-blind conditions. The percentages of the tissue changes observed were counted using a 5-point semiquantitative scale, defined for assessing necrosis and cellular loss: 0=normal kidney; 0.5=<10%; 1=10-25%; 2=25-50%; 3=50-75%; 4=75-100%.
compound,measurement,setting,value
C=C(C=O)OC(C=O)n1cnc2c(N)ncnc21 (stereo not shown) [2-[1-(6-aminopurin-9-yl)-2-oxoethoxy]prop-2-enal],macrophages infiltrating the plantar pad (immunohistochemistry),male Wistar rats; biopsies from plantar pads,significantly reduces the presence of macrophages
same,effect on thermal hyperalgesia compared with diclofenac or indometacin,male Wistar rats; single dose 6 mg/kg,greater than the effect produced by diclofenac or indometacin
same,thermal hyperalgesia in the plantar pads,"male Wistar rats; single dose 6 mg/kg, local and intravenous, for 24 hours",significantly reduces thermal hyperalgesia
same,visceral pain (number of contractions after acetic acid),mice,effective in the treatment of visceral pain
same,modulation of CD40 (negative regulation),dendritic cells (DCs); 300 μM,less marked
same,modulation of CD54 (negative regulation),dendritic cells (DCs); 300 μM,less marked
same,class I histocompatibility antigen,"dendritic cells (DCs); 300 μM, both overnight and at 5 hours",decreases
same,CD80 expression,"dendritic cells (DCs); DCs matured with LPS, 300 μM",no effects on CD80
same,CD86 expression,"dendritic cells (DCs); DCs matured with LPS, 300 μM",negative regulation of CD86
same,CD1a expression (marker of immaturity),"dendritic cells (DCs); DCs matured with LPS, IMMUFLAM 300 μM at 5 hrs, vs LPS alone",shown to increase
same,prolonged survival in the remaining 2 mice,[1]; long-term protocol,16 days and 25 days
same,anti-FoxP3 labelling,"[1]; short-term protocol, day 7",did not show significant differences
same,lymphocyte tissue infiltration (haematoxylin-eosin),"[1]; short-term protocol, day 7",absent
same,presence of mature macrophages,"[1]; short-term protocol, day 7",completely inhibited
same,"B and T lymphocytes (anti-B220, anti-CD3)","[1]; short-term protocol, day 7, vs controls",appear to decrease numerically
same,vasculopathy score,"[1]; short-term protocol, Ctrl=2.0±0.003, p=0.007, FIG. 28C",0.3±0.3
same,score of degree of infiltration,"[1]; short-term protocol, Ctrl=2.7±0.3, p=0.01, FIG. 28B",0.7±0.3
same,renal injury (histological damage score and organ functionality),"Sprague-Dawley (SD) rats; 10 mg/kg i.p., FIG. 6",largely prevents renal injury
same,plasma creatinine levels,"Sprague-Dawley (SD) rats; group 3, 10 mg/kg i.p. 30 minutes before ischaemia, 24 hours, group 1 = sham, FIG. 5",values much closer to those of group 1
